Measurements as given in patent publication US20230391760A1, “HETEROCYCLIC GLP-1 AGONISTS” (Gasherbrum Bio, Inc., priority 2020, published 2023).

Target: GLP-1 Receptor (Homo sapiens, UniProt P43220)
Test: GLP-1R agonist cAMP stimulation assay (HEK293/GLP1R/CRE-LUC cells, cAMP dynamic 2 Kit)
Type: cell-based
Settings: HEK293/CRE-Luc cell line stably expressing the GLP-1 Receptor, 30 min at 37° C.
How it was run: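 cAMP measured by HTRF competition (d2-labelled cAMP with cryptate antibody, 1 h, room temperature, protected from light). Before that, GLP1R/CRE-Luc HEK293 cells (1000/well) were exposed for 30 min at 37 °C to half-log compound dilutions in DPBS containing IBMX 0.5 mM and BSA 0.1%.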

Sequence of GLP-1 Receptor (P43220 24-463, species assumed): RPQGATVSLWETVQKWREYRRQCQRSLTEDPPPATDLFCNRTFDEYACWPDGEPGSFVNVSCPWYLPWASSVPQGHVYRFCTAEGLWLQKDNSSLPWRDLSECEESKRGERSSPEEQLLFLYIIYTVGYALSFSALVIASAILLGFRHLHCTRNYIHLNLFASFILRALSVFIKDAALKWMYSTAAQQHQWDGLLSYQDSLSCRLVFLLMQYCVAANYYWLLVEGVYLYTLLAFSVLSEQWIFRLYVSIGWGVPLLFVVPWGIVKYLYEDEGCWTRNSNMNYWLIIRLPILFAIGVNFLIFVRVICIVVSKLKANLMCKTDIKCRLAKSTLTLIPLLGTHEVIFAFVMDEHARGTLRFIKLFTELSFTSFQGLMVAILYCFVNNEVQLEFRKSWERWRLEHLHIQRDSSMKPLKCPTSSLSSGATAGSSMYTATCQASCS

| SMILES | EC50 [nM] |
| --- | --- |
| O=C(Nc1ccc2c(c1)nc(CN1CCC(c3cccc(OCc4ccc(Cl)cc4F)n3)CC1)n2C[C@@H]1CCO1)c1ccccn1 [Compound 170a, N-{2-[(4-{6-[(4-chloro-2-fluorophenyl)methoxy]pyridin-2-yl}piperidin-1-yl)methyl]-1-{[(2S)-oxetan-2-yl]methyl}-1H-1,3-benzodiazol-5-yl}pyridine-2-carboxamide] | 0.14 |
| O=c1[nH]c(-c2cnc3c(c2)nc(CN2CCC(c4cccc(OCc5ccc(Cl)cc5F)n4)CC2)n3C[C@@H]2CCO2)no1 [Compound 328a, 3-{2-[(4-{6-[(4-chloro-2-fluorophenyl)methoxy]pyridin-2-yl}piperidin-1-yl)methyl]-3-{[(2S)-oxetan-2-yl]methyl}-3H-imidazo[4,5-b]pyridin-6-yl}-4,5-dihydro-1,2,4-oxadiazol-5-one] | 0.37 |
| Cc1cc(=O)[nH]c(-c2cc3nc(CN4CCC(c5cccc(OCc6ccc(Cl)cc6F)n5)CC4)n(C[C@@H]4CCO4)c3cn2)n1 [Compound 453a, 2-{2-[(4-{6-[(4-chloro-2-fluorophenyl)methoxy]pyridin-2-yl}piperidin-1-yl)methyl]-3-{[(2S)-oxetan-2-yl]methyl}-3H-imidazo[4,5-c]pyridin-6-yl}-6-methyl-3,4-dihydropyrimidin-4-one] | 1.9 |
| N#Cc1ccc(COc2cccc(C3CCN(Cc4nc5cc(-c6nnc(C(F)(F)F)[nH]6)nnc5n4C[C@@H]4CCO4)CC3)n2)c(F)c1 [Compound 487a, 3-fluoro-4-{[(6-{1-[(7-{[(2S)-oxetan-2-yl]methyl}-3-[5-(trifluoromethyl)-4H-1,2,4-triazol-3-yl]-7H-imidazo[4,5-c]pyridazin-6-yl)methyl]piperidin-4-yl}pyridin-2-yl)oxy]methyl}benzonitrile] | 0.029 |
| C[C@H]1CN(c2ccc(F)c(OCc3ccc(Cl)cc3F)c2)CCN1Cc1nc2cc(-c3nnc(C(F)(F)F)[nH]3)ncc2n1C[C@@H]1CCO1 [Compound 479a, (2S)-4-{3-[(4-chloro-2-fluorophenyl)methoxy]-4-fluorophenyl}-2-methyl-1-[(3-{[(2S)-oxetan-2-yl]methyl}-6-[5-(trifluoromethyl)-4H-1,2,4-triazol-3-yl]-3H-imidazo[4,5-c]pyridin-2-yl)methyl]piperazine] | 0.1 |
| N#Cc1nnc(-c2cc3nc(CN4CCC(c5cccc(OCc6ccc(Cl)cc6F)n5)CC4)n(C[C@@H]4CCO4)c3cn2)[nH]1 [Compound 484a, 5-{2-[(4-{6-[(4-chloro-2-fluorophenyl)methoxy]pyridin-2-yl}piperidin-1-yl)methyl]-3-{[(2S)-oxetan-2-yl]methyl}-3H-imidazo[4,5-c]pyridin-6-yl}-4H-1,2,4-triazole-3-carbonitrile] | 0.0063 |
| CC1(c2ccc(Cl)cc2)Oc2cccc(C3CCN(Cc4nc5cc(-c6nnc(C(F)(F)F)[nH]6)ncc5n4C[C@@H]4CCO4)CC3)c2O1 (stereo partly drawn) [Compound 361a, 4-[2-(4-chlorophenyl)-2-methyl-2H-1,3-benzodioxol-4-yl]-1-[(3-{[(2S)-oxetan-2-yl]methyl}-6-[5-(trifluoromethyl)-4H-1,2,4-triazol-3-yl]-3H-imidazo[4,5-c]pyridin-2-yl)methyl]piperidine] | 0.034 |
| CN1CCCC(C(=O)Nc2ccc3c(c2)nc(CN2CCC(c4cccc(OCc5ccc(Cl)cc5F)n4)CC2)n3C[C@@H]2CCO2)C1 (stereo partly drawn) [Compound 202a, N-{2-[(4-{6-[(4-chloro-2-fluorophenyl)methoxy]pyridin-2-yl}piperidin-1-yl)methyl]-1-{[(2S)-oxetan-2-yl]methyl}-1H-1,3-benzodiazol-5-yl}-1-methylpiperidine-3-carboxamide] | 6 |
| Fc1cc(Cl)ccc1COc1cccc(C2CCN(Cc3nc4cc(-c5nnc[nH]5)ncc4n3C[C@@H]3CCO3)CC2)n1 [Compound 436a, 2-[(4-chloro-2-fluorophenyl)methoxy]-6-{1-[(3-{[(2S)-oxetan-2-yl]methyl}-6-(4H-1,2,4-triazol-3-yl)-3H-imidazo[4,5-c]pyridin-2-yl)methyl]piperidin-4-yl}pyridine] | 0.91 |
| O=c1[nH]c(-c2ccc3c(c2)nc(CC2CC=C(c4nc(OCc5ccc(Cl)cc5F)ncc4F)CC2)n3C[C@@H]2CCO2)no1 (stereo partly drawn) [Compound 242a, 3-(2-((4-(2-((4-chloro-2-fluorobenzyl)oxy)-5-fluoropyrimidin-4-yl)cyclohex-3-en-1-yl)methyl)-1-(((S)-oxetan-2-yl)methyl)-1H-benzo[d]imidazol-5-yl)-1,2,4-oxadiazol-5(4H)-one] | 0.36 |
| CC1(c2ccc(Cl)cn2)Oc2cccc(C3=CCN(Cc4nc5cc(-c6nnc(C7CC7)[nH]6)cnc5n4C[C@@H]4CCO4)CC3)c2O1 (stereo partly drawn) [Compound 416a, 5-chloro-2-[4-(1-{[6-(5-cyclopropyl-4H-1,2,4-triazol-3-yl)-3-{[(2S)-oxetan-2-yl]methyl}-3H-imidazo[4,5-b]pyridin-2-yl]methyl}-1,2,3,6-tetrahydropyridin-4-yl)-2-methyl-2H-1,3-benzodioxol-2-yl]pyridine] | 14 |
| Cc1nnc(-c2cc3nc(CN4CCC(c5cccc6c5OC(C)(c5ccc(Cl)cn5)O6)CC4)n(C[C@@H]4CCO4)c3cn2)[nH]1 (stereo partly drawn) [Compound 267a, 5-chloro-2-[2-methyl-4-(1-{[6-(5-methyl-4H-1,2,4-triazol-3-yl)-3-{[(2S)-oxetan-2-yl]methyl}-3H-imidazo[4,5-c]pyridin-2-yl]methyl}piperidin-4-yl)-2H-1,3-benzodioxol-2-yl]pyridine] | 0.051 |
| Fc1cc(Cl)ccc1COc1nc(C2CCN(Cc3nc4cc(-c5nnc(C(F)(F)F)[nH]5)ncc4n3C[C@@H]3CCO3)CC2)ccc1F [Compound 472a, 2-[(4-chloro-2-fluorophenyl)methoxy]-3-fluoro-6-{1-[(3-{[(2S)-oxetan-2-yl]methyl}-6-[5-(trifluoromethyl)-4H-1,2,4-triazol-3-yl]-3H-imidazo[4,5-c]pyridin-2-yl)methyl]piperidin-4-yl}pyridine] | 0.012 |
| Cc1nnc(-c2ccc3c(c2)nc(CN2CCC(c4cccc5c4OC(C)(c4ccc(Cl)cn4)O5)CC2)n3CC2(C#N)CC2)[nH]1 (stereo not shown) [Compound 414, 1-{[2-({4-[2-(5-chloropyridin-2-yl)-2-methyl-2H-1,3-benzodioxol-4-yl]piperidin-1-yl}methyl)-5-(5-methyl-4H-1,2,4-triazol-3-yl)-1H-1,3-benzodiazol-1-yl]methyl}cyclopropane-1-carbonitrile] | 0.055 |
| C[C@]1(c2ccc(Cl)cc2F)Oc2cccc(C3CCN(Cc4nc5cc(-c6noc(=O)[nH]6)ncc5n4CC4(C#N)CC4)CC3)c2O1 [Compound 346a, 1-{[2-({4-[(2S)-2-(4-chloro-2-fluorophenyl)-2-methyl-2H-1,3-benzodioxol-4-yl]piperidin-1-yl}methyl)-6-(5-oxo-4,5-dihydro-1,2,4-oxadiazol-3-yl)-3H-imidazo[4,5-c]pyridin-3-yl]methyl}cyclopropane-1-carbonitrile] | 0.015 |

Further lines, results first:

| EC50 [nM] | SMILES |
| --- | --- |
| 6.9 | C[C@]1(c2ccc(Cl)cc2F)Oc2cccc(C3CCN(Cc4nc5cc(C(N)=O)nnc5n4C[C@@H]4CCO4)CC3)c2O1 [Compound 432a, 6-({4-[(2S)-2-(4-chloro-2-fluorophenyl)-2-methyl-2H-1,3-benzodioxol-4-yl]piperidin-1-yl}methyl)-7-{[(2S)-oxetan-2-yl]methyl}-7H-imidazo[4,5-c]pyridazine-3-carboxamide] |
| 0.026 | CC1(c2ccc(C#N)cc2F)Oc2cccc(C3CCN(Cc4nc5cc(-c6noc(=O)[nH]6)ncc5n4C[C@@H]4CCO4)CC3)c2O1 (stereo partly drawn) [Compound 341a, 3-fluoro-4-(2-methyl-4-{1-[(3-{[(2S)-oxetan-2-yl]methyl}-6-(5-oxo-4,5-dihydro-1,2,4-oxadiazol-3-yl)-3H-imidazo[4,5-c]pyridin-2-yl)methyl]piperidin-4-yl}-2H-1,3-benzodioxol-2-yl)benzonitrile] |
| 0.022 | CC1(c2ccc(Cl)cc2)Oc2cccc(C3CCN(Cc4nc5cc(-c6noc(=O)[nH]6)ncc5n4C[C@@H]4CCO4)CC3)c2O1 (stereo partly drawn) [Compound 347a, 3-[2-({4-[2-(4-chlorophenyl)-2-methyl-2H-1,3-benzodioxol-4-yl]piperidin-1-yl}methyl)-3-{[(2S)-oxetan-2-yl]methyl}-3H-imidazo[4,5-c]pyridin-6-yl]-4,5-dihydro-1,2,4-oxadiazol-5-one] |
| 1.6 | CC1(c2ccc(Cl)cc2F)Oc2cccc(C3CCN(Cc4nc5cc(-c6n[nH]c(=O)o6)ccc5n4C[C@@H]4CCO4)CC3)c2O1 (stereo partly drawn) [Compound 219a, 5-[2-({4-[2-(4-chloro-2-fluorophenyl)-2-methyl-2H-1,3-benzodioxol-4-yl]piperidin-1-yl}methyl)-1-{[(2S)-oxetan-2-yl]methyl}-1H-1,3-benzodiazol-5-yl]-2,3-dihydro-1,3,4-oxadiazol-2-one] |
| 0.0092 | C[C@]1(c2ccc(Cl)cc2F)Oc2cccc(C3CCN(Cc4nc5cc(-c6nnc(C(F)F)[nH]6)ncc5n4C[C@@H]4CCO4)CC3)c2O1 [Compound 360a, 4-[(2S)-2-(4-chloro-2-fluorophenyl)-2-methyl-2H-1,3-benzodioxol-4-yl]-1-({6-[5-(difluoromethyl)-4H-1,2,4-triazol-3-yl]-3-{[(2S)-oxetan-2-yl]methyl}-3H-imidazo[4,5-c]pyridin-2-yl}methyl)piperidine] |
| 0.062 | C[C@]1(c2ccc(Cl)cc2F)Oc2cccc(C3CCN(Cc4nc5cc(-c6noc(=O)[nH]6)nnc5n4C[C@@H]4CCO4)CC3)c2O1 [Compound 348a, 3-[6-({4-[(2S)-2-(4-chloro-2-fluorophenyl)-2-methyl-2H-1,3-benzodioxol-4-yl]piperidin-1-yl}methyl)-7-{[(2S)-oxetan-2-yl]methyl}-7H-imidazo[4,5-c]pyridazin-3-yl]-4,5-dihydro-1,2,4-oxadiazol-5-one] |
| 7.4 | CC1(c2ccc(Cl)cc2F)Oc2cccc(C3CCN(Cc4nc5cc(-c6n[nH]c(=O)s6)ccc5n4C[C@@H]4CCO4)CC3)c2O1 (stereo partly drawn) [Compound 221a, 5-[2-({4-[2-(4-chloro-2-fluorophenyl)-2-methyl-2H-1,3-benzodioxol-4-yl]piperidin-1-yl}methyl)-1-{[(2S)-oxetan-2-yl]methyl}-1H-1,3-benzodiazol-5-yl]-2,3-dihydro-1,3,4-thiadiazol-2-one] |
